Patent US6030960A, “Method of treating hepatitis virus infections” (priority 1998, dated 2000)
Values joined by “and” are separate entries in the source; they are usually repeats but may differ in a detail not shown here. Equal values may be shown once. Read-outs that look alike come from different tables or passages of the source.

Assays:
Assay type in all cases: cell-based
[1] = system: Hepatitis B virus; assay: Effect on synthesis of antigen markers in persistently infected human HEP G2 cell cultures (Table 7); settings: for activity at 10 µM: Hepatitis B virus, HepG2, 216 h
Description: Cells were treated with compound for nine days at 37° C. The overlay medium was harvested to measure levels of HBsAg, HBeAg and virion DNA. HBsAg and HBeAg were assayed by EIA (Abbott Laboratories). Virion DNA levels were measured as described in section B above.

[2] = Cytotoxicity in HBV persistently infected human HEP G2 cells, neutral red dye uptake (Table 5); settings: human, hep-g2 cells, Trial 2, read-out: % of Control Neutral Red Dye Uptake
Excerpt: (§1) Initially, evaluations of the alkyl lipids were done to determine whether the compounds were cytotoxic to the cells at concentrations having anti-HBV activity. The assay methodology is szt forth in Korba and Germ, Antiviral Res., 19, 55-70 (1992), incorporated by reference herein. Briefly, these cell cytotoxicity evaluations were done in 96-well plates seeded with HEP-G2 cell monolayers. The hepatoblastoma cell line HEP-G2 transfected with a plasmid carrying the gene that confers resistance to […] and four 5'-3' tandem copies of the Hepatitis B virus genome was obtained from Dr. George Acs. Proc. Natl. Acad. Sci. USA, 84, 1005-1009 (1987). Serial concentrations of compound were added to the RPMI-1640 growth medium and the growth medium was added to the 96-well plates containing the cell monolayers. The cells were incubated for a total of nine days at 37° C. The compound-containing medium was periodically replaced. Each compound was tested at four serial concentrations in triplicate. After nine days of treatment and incubation, 0.01% neutral red dye (Sigma, Inc.) was added to the overlay medium. Cell cytotoxicity was quantitated by measuring the average A510. Values in Table 1 represent the percentage of average A510 values (±standard deviation) relative to nine non-treated control wells.
(§2) An analysis was periormed to determine the cytotoxicity of the following compounds in human HEP-G2 cells persistently infected with HBV: CP-51, CP-49, CP-9, CP-126, lyso PAF and CP-7. 2'-3'-Dideoxycytidine (ddC) was used as a control in this cytotoxicity analysis. The toxicity analyses were performed in 96-well flat bottomed tissue culture plates following the same procedure set forth in Example 6 above. Each compound was tested at four concentrations, each in triplicate cultures. Uptake of neutral red dye was used to determine the relative level of toxicity. The absorbance of internalized dye at […] (A510) was used for the quantitative analysis.
(§3) Values are presented as a percentage of the average A510 values (± standard deviations) in ninz separate cultures of untreated cells maintained on the same 96-well plate as the test compounds. The percentage of dye uptake in the nine control cultures was 100±1.

[3] = system: HEP G2 cells persistently infected with HBV; assay: as above; settings: at concentrations with strong or moderate antiviral activity
Excerpt: as §1, §2, §3

[4] = system: Hepatitis B virus; assay: Effect of alkyl lipids on HBV replication in HBV persistently infected human HEP G2 cells (Table 6); settings: for Intracellular HBV DNA, Mono (episomal 3.2-3.8 Kb HBV genomes) / Intracellular HBV DNA, RI (replication intermediates): nine days
Description: Cells were treated with a particular compound for nine days at 37° C. Analysis of intracellular HEIV DNA was done 24 hours following the ninth day of treatment. […] The levels of integrated HBV DNA in each cellular DNA preparation were used to calculate the levels of episomal 3.2-3.8 Kb HBV genomes (Mono) and HBV DNA replication intermediates (RI). A zero value indicates an undetectable level of HBV virion DNA. The sensitivity cut-off was 0.1 pg DNA/ml of culture medium.

Which “Relative Level of HBeAg” value ([1]; 10 μM, nine days, 12960 min) does the source give for `CCCCCCCCCCCCOCC(COP(=O)(O)OC[C@H]1O[C@@H](n2cc(C)c(=O)[nH]c2=O)C[C@@H]1N=[N+]=[N-])OCCCCCCCCCC` (mixture of isomers) [CP-126, 3'-Azido-3'-deoxy-5'-(rac-3-dodecyloxy-2-decyloxy-1-propyl) phosphothymidine] here?
Its value is 42 % of Untreated Control.

And the “Relative Level of HBsAg” value ([1]; 10 μM, nine days, 12960 min)?
Its value is 69 % of Untreated Control.

What about the “Relative Level of Virion DNA” value ([1]; 10 μM, nine days, 12960 min) of the same compound?
Its value is 14 % of Untreated Control.

And the activity at 10 µM ([1]; read-out: Relative Level of HBeAg, 10 μM, nine days)?
Its activity at 10 µM is 35%.

What about the activity at 10 µM ([1]; read-out: Relative Level of HBsAg, 10 μM, nine days) of the same compound?
Its activity at 10 µM is 65%.

And the activity at 10 µM ([1]; read-out: Relative Level of Virion DNA, 10 μM, nine days)?
Its activity at 10 µM is 10%.

And the “effect on HBsAg levels released into the culture medium” value ([1]; in words)?
Its value is “None of the compounds tested”.

What about the “reduction in HBeAg and virion DNA levels” value ([1]; in words) of the same compound?
The value was “caused a reduction”.

And the viability at 216 h, 3 µM ([2]; 3 μM)?
Its viability at 216 h, 3 µM is 100 ± 1%.

And the viability at 216 h, 10 µM ([2]; 10 μM)?
The viability at 216 h, 10 µM was 97 ± 3%.

And the viability at 216 h, 30 µM ([2]; 30 μM)?
The viability at 216 h, 30 µM was 68 ± 1%.

And the viability at 216 h, 100 µM ([2]; 100 μM)?
Its viability at 216 h, 100 µM is 20 ± 2%.

And the “Cell toxicity (greater than 50% depression of dye uptake)” value [3]?
Its value is “did not occur”.

What about the “HBV Virion DNA” value ([4]; 0.1 μM, Day 0) of the same compound?
Its value is 50 pg/ml Culture Medium and 52 pg/ml Culture Medium and 54 pg/ml Culture Medium and 60 pg/ml Culture Medium.

And the “HBV Virion DNA” value ([4]; 0.1 μM, Day 3)?
The value was 77 pg/ml Culture Medium and 79 pg/ml Culture Medium and 67 pg/ml Culture Medium and 65 pg/ml Culture Medium.

And the “HBV Virion DNA” value ([4]; 0.1 μM, Day 6)?
Its value is 61 pg/ml Culture Medium and 72 pg/ml Culture Medium and 83 pg/ml Culture Medium and 66 pg/ml Culture Medium.

And the “HBV Virion DNA” value ([4]; 0.1 μM, Day 9)?
The value was 78 pg/ml Culture Medium and 64 pg/ml Culture Medium and 82 pg/ml Culture Medium and 77 pg/ml Culture Medium.

What about the “Intracellular HBV DNA, Mono (episomal 3.2-3.8 Kb HBV genomes)” value (from here on “Intracellular HBV DNA, Mono”) ([4]; 0.1 μM) of the same compound?
Its value is 2.2 pg/μg Cell DNA and 2.6 pg/μg Cell DNA and 2.4 pg/μg Cell DNA.

What about the “Intracellular HBV DNA, RI (replication intermediates)” value (“Intracellular HBV DNA, RI” below) ([4]; 0.1 μM) of the same compound?
The value was 64 pg/μg Cell DNA and 54 pg/μg Cell DNA and 70 pg/μg Cell DNA and 89 pg/μg Cell DNA.

And the “HBV Virion DNA” value ([4]; 1 μM, Day 0)?
The value was 67 pg/ml Culture Medium and 54 pg/ml Culture Medium and 70 pg/ml Culture Medium and 69 pg/ml Culture Medium.

And the “HBV Virion DNA” value ([4]; 1 μM, Day 3)?
Its value is 49 pg/ml Culture Medium and 57 pg/ml Culture Medium and 65 pg/ml Culture Medium and 53 pg/ml Culture Medium.

And the “HBV Virion DNA” value ([4]; 1 μM, Day 6)?
Its value is 40 pg/ml Culture Medium and 39 pg/ml Culture Medium and 44 pg/ml Culture Medium and 48 pg/ml Culture Medium.

What about the “HBV Virion DNA” value ([4]; 1 μM, Day 9) of the same compound?
The value was 28 pg/ml Culture Medium and 20 pg/ml Culture Medium and 22 pg/ml Culture Medium and 26 pg/ml Culture Medium.

And the “Intracellular HBV DNA, Mono” value ([4]; 1 μM)?
The value was 2.3 pg/μg Cell DNA and 2.7 pg/μg Cell DNA and 2.1 pg/μg Cell DNA and 1.8 pg/μg Cell DNA.

And the “Intracellular HBV DNA, RI” value ([4]; 1 μM)?
The value was 51 pg/μg Cell DNA and 67 pg/μg Cell DNA and 56 pg/μg Cell DNA and 61 pg/μg Cell DNA.

And the “HBV Virion DNA” value ([4]; 10 μM, Day 0)?
Its value is 60 pg/ml Culture Medium and 62 pg/ml Culture Medium and 59 pg/ml Culture Medium and 51 pg/ml Culture Medium.

What about the “HBV Virion DNA” value ([4]; 10 μM, Day 3) of the same compound?
The value was 59 pg/ml Culture Medium and 50 pg/ml Culture Medium and 55 pg/ml Culture Medium and 66 pg/ml Culture Medium.

And the “HBV Virion DNA” value ([4]; 10 μM, Day 6)?
The value was 20 pg/ml Culture Medium and 21 pg/ml Culture Medium and 26 pg/ml Culture Medium and 29 pg/ml Culture Medium.

What about the “HBV Virion DNA” value ([4]; 10 μM, Day 9, 0 = undetectable, cut-off 0.1 pg DNA/ml) of the same compound?
The value was 13 pg/ml Culture Medium and 8 pg/ml Culture Medium and 9 pg/ml Culture Medium and 12 pg/ml Culture Medium.

What about the “Intracellular HBV DNA, Mono” value ([4]; 10 μM) of the same compound?
The value was 1.9 pg/μg Cell DNA and 2.5 pg/μg Cell DNA and 2.0 pg/μg Cell DNA and 2.3 pg/μg Cell DNA.

What about the “Intracellular HBV DNA, RI” value ([4]; 10 μM) of the same compound?
Its value is 14 pg/μg Cell DNA and 9 pg/μg Cell DNA and 12 pg/μg Cell DNA and 16 pg/μg Cell DNA.

And the “inhibition of HBV replication” value ([4]; in words)?
The value was “moderately inhibitory of HBV replication”.
